These results are taken from US20110280865A1, “Ets-2 Biomarkers for Fibrotic Diseases and Uses Thereof” (THE OHIO STATE UNIVERSITY, priority 2009, published 2011).

The test relates to ets-2 (WT/WT) and ets-2 (A72/A72) mice. Briefly: Bronchoalveolar lavage (BAL) cell differentials after intra-peritoneal bleomycin. It counts as in vivo, mouse. Particulars: mean ± S.E.M. The protocol: Mice: Transgenic mice harboring a point mutation in Ets2 [Ets2tmA720sh, referred to as Ets2 (A72/A72)] resulting in a threonine to alanine conversion at position 72 were used. Wild type littermates (FVB/N background) were used as controls.
Bleomycin studies: Male mice, aged 6-12 weeks, underwent intra-peritoneal (IP) injection. Briefly, mice were injected with 0.035 U bleomycin/g or PBS (vehicle control) on days 1, 4, 8, 11, 15, 18, 22, and 25. One week following the last injection, mice were sacrificed. Prior to removal, lungs were lavaged with 1.0 ml of PBS. Lungs were subsequently removed and inflated at 20 cm pressure. The left lobe of the lung was placed in 10% Formalin and prepared for immunohistochemical processing (Histotechniques, Powell, Ohio), and the right lobes were snap frozen in liquid nitrogen for RNA, collagen, and protein analyses.
Bronchoalveolar lavage (BAL) analysis: Following the bleomycin regimen (33 days), two instillations of 0.5 ml of PBS were performed, and the BAL fluid (BALF) was collected. The total number of cells isolated via BAL was calculated. BAL fluid was then centrifuged to pellet the cells, and the supernatant (BALF) was collected and stored for ELISA analyses. Cells were resuspended in 100 μl of PBS, cytospun on slides, stained, and analyzed under a microscope for cell differentials.

The mark [1] stands for this setting: ets-2 (A72/A72) mice, n = 7, 0.035 U bleomycin/g IP.
Setting [2] is: ets-2 (WT/WT) mice, n = 5, 0.035 U bleomycin/g IP.

For bleomycin, under setting [1], the “Alveolar Macrophages” value is on record as 6.8 ± 1.4 ×10^4, the Lymphocytes is recorded as 0.7 ± 0.6 ×10^4, the Neutrophils is 0.8 ± 0.6 ×10^4 and the Total cells is 8.3 ± 2.0 ×10^4. Further, under setting [2], the “Alveolar Macrophages” value was 12.0 ± 2.3 $ ×10^4, the Lymphocytes is listed as 0 ×10^4, the Neutrophils is given as 0 ×10^4 and the Total cells was 12.0 ± 2.3 # ×10^4.
